# Measurements as given in publication PMC9468151, “Identification of a binding site on soluble RANKL that can be targeted to inhibit soluble RANK-RANKL interactions and treat osteoporosis” (Nature Communications, 2022).
# Where “and” joins values, the source holds several entries; their conditions need not be identical. Identical values can stand only once.
# Columns and labels:
# [1] = target: T1, human mRANKL and human OPG (Homo sapiens, UniProt O14788); assay: mRANKL-OPG binding, HEK 293T cells with full length human RANKL; format: cell-based
# T1 construct: HEK 293 T cells that transfer full length mouse RANKL or human RANKL; expressed in transfected cells; host or cells: HEK293T
# Protocol: mRANKL-OPG: MC3T3-E1 cells were differentiated by osteoblast differentiation medium (Pythonbio, China) for 2 days. Then cells were exposed to 1 M NaCl for 5 minutes to remove endogenous OPG, washed once in PBS, and fixed with 70% ethanol for 5 minutes at 4 °C. Fixed cells were wash once by PBS and then exposed to PBS that containing 100 ng mouse OPG (Sino, China) or 100 ng mouse OPG with 1 μM S3-15 and incubated for an additional 30 min at 4 °C. Cell layers were washed 2 times with PBS and lysed with 1% triton in PBS. The concentration of OPG in cell lysates were measured with an OPG ELISA kit (USCN, China). Similar proceed were performed using HEK 293 T cells that transfer full length mouse RANKL or human RANKL.
# [2] = test system: T lymphocyte; assay: T lymphocyte cell proliferation assay (CFSE, CD4+/CD8+ flow cytometry); format: cell-based, human
# Protocol: T lymphocyte cell proliferation assay was performed according to a reported method[58] with some modification. Briefly, 5 × 10^6 cells /mL cells were stained 2.5 μM CFSE (Tonbo Biosciences) and incubated at 37 °C for 12 min. Then washed and discarded the supernatant and adjusted the CFSE stained cell to 1.75 × 10^6 cells /mL. Cells were diluted in 1640 completed medium containing 5 μg/mL anti-CD3 antibody (Tonbo Biosciences) to 3 × 10^5 cells/mL and seed in a 96-well plate or 24-well plate that pre-packaged 0.4 μg/well anti-CD28 antibody and 1.6 μg anti-CD28 antibody (24-well) (Tonbo Biosciences). Cells were then cultured for 3 days, 9 days or 12 days. Subsequently, the proportion of CD4^+ and CD8^+ cells was determined by flow cytometry (Beckman Coulter, FC500) according to manufacturer’s instruction of PE-Cyanine7 anti-Human CD8a and PE anti-Human CD4 antibodies (Tonbo Biosciences). Data analyzing was performed by using CXP software (Beckman Coulter, Supplementary Fig. 8).
# [3] = Cancer donor 1, 3 day, S3-15 0.2
# [4] = Cancer donor 1, 3 day, S3-15 10
# [5] = Healthy donor 1, 3 day, S3-15 0.2
# [6] = Healthy donor 1, 3 day, S3-15 1
# [7] = Healthy donor 1, 3 day, S3-15 5
# [8] = Healthy donor 1, 3 day, S3-15 10
# [9] = Healthy donor 1, 12 day, S3-15 0.2
# [10] = Healthy donor 1, 12 day, S3-15 1
# [11] = Healthy donor 1, 12 day, S3-15 5
# [12] = Healthy donor 1, 12 day, S3-15 10
# [13] = Healthy donor 2, 9 day, S3-15 0.2
# T1 sequence (O14788 whole entry): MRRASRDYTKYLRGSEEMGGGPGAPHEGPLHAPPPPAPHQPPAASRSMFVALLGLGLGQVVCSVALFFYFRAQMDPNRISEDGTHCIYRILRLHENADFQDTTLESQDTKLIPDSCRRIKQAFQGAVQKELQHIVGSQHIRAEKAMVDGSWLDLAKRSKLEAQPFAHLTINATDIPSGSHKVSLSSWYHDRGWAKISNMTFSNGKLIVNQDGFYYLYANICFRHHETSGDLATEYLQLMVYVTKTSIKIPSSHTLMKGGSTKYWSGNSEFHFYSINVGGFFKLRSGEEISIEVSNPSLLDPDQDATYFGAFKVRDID
compound,measurement,setting,value
CC(=O)/C(=N\Nc1ccccc1C(=O)O)C(=O)Nc1ccccn1 [S3-15],human mRANKL and human OPG binding,[1]; 1 μM,no effects
same,mRANKL-OPG binding signal (fig. S4p),[1]; OPG+S3-15,0.1995 and 0.1932 and 0.1954
same,CD8+ cells in total cells (%),[2]; [3],14.3% and 18.21% and 16% and 17.82%
same,CD8+cells in CFSE-cells (%),[2]; [3],44.38% and 49.16% and 53.36% and 45.53%
same,CFSE- cells in total cells (%),[2]; [3],7.99% and 11.49% and 11.51% and 10.07%
same,CD8+ cells in total cells (%),"[2]; Cancer donor 1, 3 day, S3-15 1",15.56% and 19.33% and 22.39% and 19.99%
same,CD8+cells in CFSE-cells (%),"[2]; Cancer donor 1, 3 day, S3-15 1",49.17% and 50.09% and 56.77% and 50.35%
same,CFSE- cells in total cells (%),"[2]; Cancer donor 1, 3 day, S3-15 1",9.93% and 12.76% and 16.17% and 13.25%
same,CD8+ cells in total cells (%),"[2]; Cancer donor 1, 3 day, S3-15 5",18.34% and 20.27% and 20.25% and 13.63%
same,CD8+cells in CFSE-cells (%),"[2]; Cancer donor 1, 3 day, S3-15 5",56.42% and 54.7% and 55.11% and 51.68%
same,CFSE- cells in total cells (%),"[2]; Cancer donor 1, 3 day, S3-15 5",12.69% and 14.11% and 13.95% and 8.72%
same,CD8+ cells in total cells (%),[2]; [4],19.25% and 18.44% and 17.07% and 14.93%
same,CD8+cells in CFSE-cells (%),[2]; [4],49.18% and 47.91% and 49.38% and 44.39%
same,CFSE- cells in total cells (%),[2]; [4],12.56% and 11.54% and 10.9% and 9.12%
same,CD4+cells in total cells (%),[2]; [5],68.58% and 70.02% and 62.64% and 62.46%
same,CD8+ cells in total cells (%),[2]; [5],18.64% and 19.25% and 16.01% and 13.6%
same,CD8+cells in CFSE-cells (%),[2]; [5],20.07% and 33.28% and 21.3% and 26.99%
same,CFSE- cells in total cells (%),[2]; [5],25.93% and 25.33% and 20.8% and 18.33%
same,CD4+cells in total cells (%),[2]; [6],63.51% and 67.38% and 70.68% and 68.88%
same,CD8+ cells in total cells (%),[2]; [6],12.65% and 15.35% and 17.94% and 14.88%
same,CFSE- cells in total cells (%),[2]; [6],21.49% and 20.46% and 25.21% and 18.85%
same,CD4+cells in total cells (%),[2]; [7],68.14% and 68.06% and 70.19% and 66.42%
same,CD8+ cells in total cells (%),[2]; [7],12.78% and 16.22% and 14.24% and 15.07%
same,CD8+cells in CFSE-cells (%),[2]; [7],16% and 25.32% and 17.12% and 15.1%
same,CFSE- cells in total cells (%),[2]; [7],22.52% and 22.58% and 17.52% and 21.09%
same,CD4+cells in total cells (%),[2]; [8],72.21% and 54.01% and 61.69% and 61.53%
same,CD8+ cells in total cells (%),[2]; [8],17.68% and 18.86% and 15.27% and 10.99%
same,CD8+cells in CFSE-cells (%),[2]; [8],13.48% and 20.77% and 16.03%
same,CFSE- cells in total cells (%),[2]; [8],22.22% and 20.93% and 15.94%
same,CD4+cells in total cells (%),[2]; [9],25.25% and 26.11% and 25.81% and 23.7%
same,CD8+ cells in total cells (%),[2]; [9],16% and 15.3% and 20.01% and 21.66%
same,CD8+cells in CFSE-cells (%),[2]; [9],74.91% and 72.37% and 73.55% and 71.27%
same,CFSE- cells in total cells (%),[2]; [9],16.3% and 15.37% and 18.72% and 19.27%
same,CD4+cells in total cells (%),[2]; [10],25.53% and 24.4% and 24.71% and 25.6%
same,CD8+ cells in total cells (%),[2]; [10],15.74% and 17.31% and 17.44% and 15.99%
same,CD8+cells in CFSE-cells (%),[2]; [10],74.2% and 73.02% and 72.56% and 72.37%
same,CFSE- cells in total cells (%),[2]; [10],15.48% and 17.29% and 17.32% and 15.2%
same,CD4+cells in total cells (%),[2]; [11],25.95% and 25.52% and 26.76% and 24.64%
same,CD8+ cells in total cells (%),[2]; [11],18.18% and 19.04% and 19.74% and 15.99%
same,CD8+cells in CFSE-cells (%),[2]; [11],75% and 70.17% and 74.02% and 72.37%
same,CFSE- cells in total cells (%),[2]; [11],16.98% and 16.53% and 18.76% and 15.2%
same,CD4+cells in total cells (%),[2]; [12],24.55% and 25.9% and 26.53% and 28.64%
same,CD8+ cells in total cells (%),[2]; [12],25.46% and 18.53% and 18.26% and 16.63%
same,CD8+cells in CFSE-cells (%),[2]; [12],73.6% and 72.27% and 73.36% and 76.51%
same,CFSE- cells in total cells (%),[2]; [12],23.52% and 17.38% and 18.28% and 16.8%
same,CD8+ cells in total cells (%),[2]; [13],60.09% and 60.2% and 40.04%
same,CD8+cells in CFSE-cells (%),[2]; [13],54.45% and 45.56% and 52.87%
